This note sets out measurements from patent publication US20260335323A1, “CHIMERIC MOLECULE” (UCL Business Ltd, priority 2023, published 2026).

Experiment [1] relates to LC3. As to the kind of experiment: Western blot, LC3I:LC3II ratio in PANC-1 cells. In kind it is cell-based, human. An excerpt: (§1) FIG. 2. BL-918 is a potent ULK1 agonist and autophagy inducer (A) Representative images of PANC-1 cells stably expressing the mCherry-EGFP-LC3 tandem reporter treated with ULK1 agonists. Nuclei stained with Hoechst 33342, autophagosomes are shown in the EGFP channel and autolysosomes in the mCherry channel. Fold change in the number of autophagosomes (B) and autolysosomes (C) puncta in ULK1 agonist treated cells. (D) Western blot of PANC-1 cells treated with DMSO, bafilomycin and ULK1 agonists±bafilomycin; probed for p-ULK1 (S317), ULK1, p62, b-actin, LC3-I and LC3-II. Quantifications of western blot for changes in the ratio of p-ULK1 (S317):ULK1 (E), p62 (F) and LC31:LC3II (G). All data shown are mean±SEM, n=3, *p<0.05, ** p<0.01, one-way ANOVA with Dunnett's multiple comparisons test.
FIG. 4. ULKTACs retain ULK1 agonist activity and subsequent induction of autophagy (A) Western blot of PANC-1 cells treated with ULKTACs±bafilomycin, probed for p-ULK1 (S317), ULK1, p62, b-Actin, LC31 and LC3II. Quantifications of (A) for the pULK1:ULK1 ratio (B) LC3I:LC3II ratio (C) and changes in p62 (D). (E) Representative images of PANC-1 cells stably expressing the mCherry-EGFP-LC3 tandem reporter treated with ULKTACs w/or w/o bafilomycin. Nuclei stained with Hoechst 33342, autophagosomes are shown in the EGFP channel and autolysosomes in the mCherry channel. […]
Cells were homogenised in protein lysis buffer consisting of 0.1 M Tris pH 8.0, 0.1 M NaCl, 5% glycerol, IGEPAL® CA-630 (#18896. Sigma-Aldrich) and 5 mM EDTA, 0.1 M N-ethyl maleimide (ThermoFisher, #23030) and protease inhibitor (Cell Signalling Technologies, #5871). Protein concentrations were determined using the BCA assay to ensure equal loading. […]
(§2) Membranes were then incubated with horseradish peroxidase (HRP)-conjugated secondary antibodies (Rabbit #7074 and Mouse #7076) purchased from Cell Signalling Technologies for 1 hour and the HRP signal was detected using EZ-ECL Enhanced Chemiluminescence Detection Kit for HRP (#20-500-500, Sartorius), and imaged with an Alliance Q9 Advanced (UVITec). […]

The target in experiment [2] is T1, ULK1 (Homo sapiens, UniProt O75385).
T1 sequence (O75385 1-1050): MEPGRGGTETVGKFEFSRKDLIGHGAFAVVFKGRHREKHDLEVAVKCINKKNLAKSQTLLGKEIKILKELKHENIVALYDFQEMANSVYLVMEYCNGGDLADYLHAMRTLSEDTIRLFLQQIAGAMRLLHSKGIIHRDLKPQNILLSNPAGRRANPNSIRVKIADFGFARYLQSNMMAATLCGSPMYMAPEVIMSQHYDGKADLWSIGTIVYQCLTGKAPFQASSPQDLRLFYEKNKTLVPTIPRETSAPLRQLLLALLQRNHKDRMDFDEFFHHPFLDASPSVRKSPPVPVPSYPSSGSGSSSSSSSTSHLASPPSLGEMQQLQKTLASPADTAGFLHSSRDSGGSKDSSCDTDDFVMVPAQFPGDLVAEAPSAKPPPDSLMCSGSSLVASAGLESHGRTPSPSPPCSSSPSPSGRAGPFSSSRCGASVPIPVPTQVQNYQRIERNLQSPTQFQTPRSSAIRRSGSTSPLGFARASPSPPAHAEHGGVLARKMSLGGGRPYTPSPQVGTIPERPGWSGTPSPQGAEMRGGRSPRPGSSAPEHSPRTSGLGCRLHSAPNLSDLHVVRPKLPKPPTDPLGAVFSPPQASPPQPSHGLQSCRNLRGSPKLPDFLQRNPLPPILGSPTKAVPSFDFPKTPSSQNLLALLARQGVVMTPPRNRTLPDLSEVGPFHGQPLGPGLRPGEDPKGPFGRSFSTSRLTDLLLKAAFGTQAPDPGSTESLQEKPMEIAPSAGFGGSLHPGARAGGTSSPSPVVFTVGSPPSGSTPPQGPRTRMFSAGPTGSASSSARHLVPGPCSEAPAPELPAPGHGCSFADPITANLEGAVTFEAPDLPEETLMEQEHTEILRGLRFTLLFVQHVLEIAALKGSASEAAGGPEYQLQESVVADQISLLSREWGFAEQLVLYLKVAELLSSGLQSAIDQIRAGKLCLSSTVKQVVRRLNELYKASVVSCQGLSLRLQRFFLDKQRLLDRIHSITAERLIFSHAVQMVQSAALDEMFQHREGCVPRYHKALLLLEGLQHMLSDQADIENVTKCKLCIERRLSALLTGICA
As to the kind of experiment: Western blot, phosphorylation of ULK1 at Ser317 in PANC-1 cells. Type of experiment: cell-based. On the set-up: pSer317 blot or TOM20 co-localisation.
From the text: as §1
FIG. 4. ULKTACs retain ULK1 agonist activity and subsequent induction of autophagy (A) Western blot of PANC-1 cells treated with ULKTACs±bafilomycin, probed for p-ULK1 (S317), ULK1, p62, b-Actin, LC31 and LC3II. Quantifications of (A) for the pULK1:ULK1 ratio (B) LC3I:LC3II ratio (C) and changes in p62 (D). (E) Representative images of PANC-1 cells stably expressing the mCherry-EGFP-LC3 tandem reporter treated with ULKTACs w/or w/o bafilomycin. Nuclei stained with Hoechst 33342, autophagosomes are shown in the EGFP channel and autolysosomes in the mCherry channel. Fold change in the number of autophagosome (F) and autolysosome (G) puncta. Data shown are mean±SEM, *p<0.05, ** p<0.01, *** p<0.001, one-way ANOVA, Dunnett's multiple comparisons test.
Cells were homogenised in protein lysis buffer consisting of 0.1 M Tris pH 8.0, 0.1 M NaCl, 5% glycerol, IGEPAL® CA-630 (#18896. Sigma-Aldrich) and 5 mM EDTA, 0.1 M N-ethyl maleimide (ThermoFisher, #23030) and protease inhibitor (Cell Signalling Technologies, #5871). Protein concentrations were determined using the BCA assay to ensure equal loading. […] The membranes were immunoblotted with primary antibodies, overnight at 4° C. ULK1 (D8H5) Rabbit mAb (#0854) [1:1000], Phospho-ULK1 (Ser 317) Rabbit antibody (#37762) [1:1000], LC3B Rabbit antibody (#2775) [1:1000], TOM20 (D8T4N) Rabbit mAb (#42406) [1:1000] and, Phospho-Ubiquitin (Ser 65) (E2J6T) Rabbit mAb (#62082) [1:500] were obtained from Cell Signalling Technologies. Recombinant Anti-Vinculin Rabbit antibody (EPR8185) (#ab129002) [1:5000] and Anti-Mitofusin2 mouse antibody (6A8) (#ab56889) [1:1000] were purchased from Abcam. […]
as §2

Consider `O=C(Nc1ccc(F)cc1F)[C@H](NC(=S)Nc1cc(C(F)(F)F)cc(C(F)(F)F)c1)c1ccccc1` [BL-918, reference compound], for which the “LC31: LC3II ratio” value in experiment [1] is given as “increases in the LC31: LC3II ratio”. In addition, in experiment [2], the “activation of ULK1 and autophagy (overall)” value is “potent activator of ULK1 and autophagy”; the “phosphorylation of ULK1 at Ser317” value is recorded as “induction of phosphorylation of ULK1 at Ser317”.

Regarding `O=C(Nc1cc(C(F)(F)F)cc(C(F)(F)F)c1)N[C@@H](C(=O)Nc1ccc(F)cc1F)c1ccc(OCc2cn(CCOCCOCCNC(=O)C(=O)c3c(-c4ccccc4)[nH]c4ccccc34)nn2)cc1` [NZ-65, (R)-2-(3-(3,5-bis(trifluoromethyl)phenyl)ureido)-N-(2,4-difluorophenyl)-2-(4-((1-(2-(2-(2-(2-oxo-2-(2-phenyl-1H-indol-3-yl)acetamido)ethoxy)ethoxy)ethyl)-1H-1,2,3-triazol-4-yl)methoxy)phenyl) acetamide], in experiment [1], the “LC31: LC3II ratio” value was “increases in the LC31: LC3II ratio”. The “phosphorylation of ULK1 at Ser317” value in experiment [2] is listed as “strong increase in phospho-Ser317 levels”.

As for `O=C(Nc1cc(C(F)(F)F)cc(C(F)(F)F)c1)N[C@@H](C(=O)Nc1ccc(F)cc1F)c1ccc(OCc2cn(CCCCCCNC(=O)C(=O)c3c(-c4ccccc4)[nH]c4ccccc34)nn2)cc1` [NZ-66, (R)-2-(3-(3,5-bis(trifluoromethyl)phenyl)ureido)-N-(2,4-difluorophenyl)-2-(4-((1-(6-(2-oxo-2-(2-phenyl-1H-indol-3-yl)acetamido)hexyl)-1H-1,2,3-triazol-4-yl)methoxy)phenyl) acetamide], the “LC31: LC3II ratio” value in experiment [1] is “increases in the LC31: LC3II ratio”. Moreover, the “phosphorylation of ULK1 at Ser317” value in experiment [2] was “strong increase in phospho-Ser317 levels”.
